Data from ChEMBL document CHEMBL5036336, “Structure-Guided Optimization Provides a Series of TTK Protein Inhibitors with Potent Antitumor Activity” (J Med Chem, 2021).
Calls of active or inactive are those of the source. The calls are words filed in the database; no cut-off is given here.

Legend:
[1] = organism: Homo sapiens; assay: Selectivity ratio of IC50 for inhibition of LRRK2 (unknown origin) to IC50 for inhibition of TTK (unknown origin)
[2] = Clearance in rat at 2 mg/kg, iv; format: ADME, organism-based; conditions: in vivo
[3] = target: T1, Serine/threonine-protein kinase Chk2 (Homo sapiens, UniProt O96017); assay: Inhibition of CHK2 (unknown origin) at 3 uM by Z-lyte assay relative to control
[4] = target: T2, Leucine-rich repeat serine/threonine-protein kinase 2 (Homo sapiens, UniProt Q5S007); assay: Inhibition of LRRK2 (unknown origin) at 3 uM by ADAPTA assay relative to control
[5] = organism: Homo sapiens; assay: Selectivity ratio of IC50 for inhibition of MAPKAPK3 (unknown origin) to IC50 for inhibition of TTK (unknown origin)
[6] = Volume of distribution at steady state in mouse at 2 mg/kg, iv; format: ADME, organism-based; conditions: in vivo, read-out: Vdss
[7] = AUC in mouse at 2 mg/kg, iv; format: ADME, organism-based; set-up: dose 2 mg/kg; conditions: in vivo
[8] = target: Testis-specific serine/threonine-protein kinase 1 (Homo sapiens, UniProt Q9BXA7); assay: Inhibition of TSSK1 (unknown origin) by Z-lyte assay
[9] = Mean residence time in mouse at 2 mg/kg, iv; format: ADME, organism-based; conditions: in vivo
[10] = target: Cytochrome P450 3A4 (Homo sapiens, UniProt P08684); assay: Inhibition of CYP3A4 in human liver microsomes using […] as substrate incubated for 5 mins in presence of NADPH by LC-MS/MS analysis; format: ADME
[11] = target: T2, Leucine-rich repeat serine/threonine-protein kinase 2; assay: Inhibition of LRRK2 (unknown origin) by ADAPTA assay
[12] = target: Voltage-gated inwardly rectifying potassium channel KCNH2 (Homo sapiens, UniProt Q12809); assay: Inhibition of hERG
[13] = target: T3, Dual specificity protein kinase TTK (Homo sapiens, UniProt P33981); assay: Displacement of kinase tracer 236 from TTK (unknown origin) by LanthaScreen Eu kinase binding assay
T3 sequence (P33981 whole entry): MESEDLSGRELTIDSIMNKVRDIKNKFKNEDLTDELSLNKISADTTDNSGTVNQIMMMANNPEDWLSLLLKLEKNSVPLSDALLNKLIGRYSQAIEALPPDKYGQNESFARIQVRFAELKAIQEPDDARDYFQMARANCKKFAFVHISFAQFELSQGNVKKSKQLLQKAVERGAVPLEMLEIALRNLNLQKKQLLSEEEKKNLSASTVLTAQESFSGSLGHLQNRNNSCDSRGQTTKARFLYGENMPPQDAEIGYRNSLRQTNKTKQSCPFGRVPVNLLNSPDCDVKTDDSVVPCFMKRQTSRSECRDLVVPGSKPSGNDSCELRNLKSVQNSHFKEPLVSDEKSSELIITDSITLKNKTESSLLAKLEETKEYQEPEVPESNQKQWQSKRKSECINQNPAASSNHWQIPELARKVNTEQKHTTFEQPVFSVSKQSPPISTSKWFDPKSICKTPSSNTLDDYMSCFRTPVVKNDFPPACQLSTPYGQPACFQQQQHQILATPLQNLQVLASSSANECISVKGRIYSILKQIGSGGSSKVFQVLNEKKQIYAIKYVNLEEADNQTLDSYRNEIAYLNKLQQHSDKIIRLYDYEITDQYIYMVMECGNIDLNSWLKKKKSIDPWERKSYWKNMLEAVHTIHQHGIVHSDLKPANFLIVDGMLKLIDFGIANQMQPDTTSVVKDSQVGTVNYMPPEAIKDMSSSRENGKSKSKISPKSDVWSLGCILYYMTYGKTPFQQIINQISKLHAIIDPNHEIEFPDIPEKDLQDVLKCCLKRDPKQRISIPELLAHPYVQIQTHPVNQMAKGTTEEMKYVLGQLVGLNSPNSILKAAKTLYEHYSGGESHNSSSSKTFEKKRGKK

[14] = Volume of distribution at steady state in rat at 2 mg/kg, iv; format: ADME, organism-based; conditions: in vivo, read-out: Vdss
[15] = target: Testis-specific serine/threonine-protein kinase 1 (Homo sapiens) (UniProt Q9BXA7); assay: Inhibition of TSSK1 (unknown origin) at 3 uM by Z-lyte assay relative to control
[16] = target: T4, Mitogen-activated protein kinase 9 (Homo sapiens, UniProt P45984); assay: Inhibition of JNK2 (unknown origin) by Z-lyte assay
[17] = organism: Homo sapiens; assay: Selectivity ratio of IC50 for inhibition of LRRK2 G2019S mutant (unknown origin) to IC50 for inhibition of TTK (unknown origin)
[18] = organism: Homo sapiens; assay: Selectivity ratio of IC50 for inhibition of JNK2 (unknown origin) to IC50 for inhibition of TTK (unknown origin)
[19] = Plasma protein binding in mouse; format: ADME, cell-free; conditions: read-out: PPB
[20] = target: T1, Serine/threonine-protein kinase Chk2; assay: Inhibition of CHK2 (unknown origin) by Z-lyte assay
[21] = organism: Homo sapiens; assay: Selectivity ratio of IC50 for inhibition of TSSK1 (unknown origin) to IC50 for inhibition of TTK (unknown origin)
[22] = target: Substance-P receptor (Homo sapiens) (UniProt P25103); assay: Inhibition of Neurokinin NK1 receptor (unknown origin) at 10 uM relative to control
[23] = target: Proto-oncogene tyrosine-protein kinase Src (Homo sapiens, UniProt P12931); assay: Inhibition of SRC N1 (unknown origin) at 3 uM by Z-lyte assay relative to control
[24] = target: T4, Mitogen-activated protein kinase 9; assay: Inhibition of JNK2 (unknown origin) at 3 uM by Z-lyte assay relative to control
[25] = target: MAP kinase-activated protein kinase 3 (Homo sapiens, UniProt Q16644); assay: Inhibition of MAPKAPK3 (unknown origin) by Z-lyte assay
[26] = Mean residence time in rat at 2 mg/kg, iv; format: ADME, organism-based; conditions: in vivo
[27] = target: Cytochrome P450 2C8 (Homo sapiens, UniProt P10632); assay: Time dependent inhibition of CYP2C8 in human liver microsomes; format: ADME
[28] = target: Testis-specific serine/threonine-protein kinase 2 (Homo sapiens) (UniProt Q96PF2); assay: Inhibition of TSSK2 (unknown origin) at 3 uM by Z-lyte assay relative to control
[29] = test system: CAL-51; assay: Antitumor activity against human TNBC PDX-CAL-51 cells xenografted in CB17-SCID mouse assessed as tumor growth inhibition at 25 to 80 mg/kg, iv administered once per week for 3 weeks; format: functional, organism-based; conditions: dose 25-80 mg/kg
[30] = target: Testis-specific serine/threonine-protein kinase 2 (Homo sapiens, UniProt Q96PF2); assay: Inhibition of TSSK2 (unknown origin) by Z-lyte assay
[31] = AUC in rat at 2 mg/kg, iv; format: ADME, organism-based; set-up: dose 2 mg/kg; conditions: in vivo
[32] = target: Mitogen-activated protein kinase 8 (Homo sapiens, UniProt P45983); assay: Inhibition of JNK1 (unknown origin) at 3 uM by Z-lyte assay relative to control
[33] = target: Leucine-rich repeat serine/threonine-protein kinase 2 (Homo sapiens, UniProt Q5S007, G2019S); assay: Inhibition of LRRK2 G2019S mutant (unknown origin) by ADAPTA assay
[34] = target: Muscarinic acetylcholine receptor M1 (Homo sapiens) (UniProt P11229); assay: Inhibition of muscarinic M1 receptor (unknown origin) at 10 uM relative to control

T2 sequence (Q5S007 whole entry): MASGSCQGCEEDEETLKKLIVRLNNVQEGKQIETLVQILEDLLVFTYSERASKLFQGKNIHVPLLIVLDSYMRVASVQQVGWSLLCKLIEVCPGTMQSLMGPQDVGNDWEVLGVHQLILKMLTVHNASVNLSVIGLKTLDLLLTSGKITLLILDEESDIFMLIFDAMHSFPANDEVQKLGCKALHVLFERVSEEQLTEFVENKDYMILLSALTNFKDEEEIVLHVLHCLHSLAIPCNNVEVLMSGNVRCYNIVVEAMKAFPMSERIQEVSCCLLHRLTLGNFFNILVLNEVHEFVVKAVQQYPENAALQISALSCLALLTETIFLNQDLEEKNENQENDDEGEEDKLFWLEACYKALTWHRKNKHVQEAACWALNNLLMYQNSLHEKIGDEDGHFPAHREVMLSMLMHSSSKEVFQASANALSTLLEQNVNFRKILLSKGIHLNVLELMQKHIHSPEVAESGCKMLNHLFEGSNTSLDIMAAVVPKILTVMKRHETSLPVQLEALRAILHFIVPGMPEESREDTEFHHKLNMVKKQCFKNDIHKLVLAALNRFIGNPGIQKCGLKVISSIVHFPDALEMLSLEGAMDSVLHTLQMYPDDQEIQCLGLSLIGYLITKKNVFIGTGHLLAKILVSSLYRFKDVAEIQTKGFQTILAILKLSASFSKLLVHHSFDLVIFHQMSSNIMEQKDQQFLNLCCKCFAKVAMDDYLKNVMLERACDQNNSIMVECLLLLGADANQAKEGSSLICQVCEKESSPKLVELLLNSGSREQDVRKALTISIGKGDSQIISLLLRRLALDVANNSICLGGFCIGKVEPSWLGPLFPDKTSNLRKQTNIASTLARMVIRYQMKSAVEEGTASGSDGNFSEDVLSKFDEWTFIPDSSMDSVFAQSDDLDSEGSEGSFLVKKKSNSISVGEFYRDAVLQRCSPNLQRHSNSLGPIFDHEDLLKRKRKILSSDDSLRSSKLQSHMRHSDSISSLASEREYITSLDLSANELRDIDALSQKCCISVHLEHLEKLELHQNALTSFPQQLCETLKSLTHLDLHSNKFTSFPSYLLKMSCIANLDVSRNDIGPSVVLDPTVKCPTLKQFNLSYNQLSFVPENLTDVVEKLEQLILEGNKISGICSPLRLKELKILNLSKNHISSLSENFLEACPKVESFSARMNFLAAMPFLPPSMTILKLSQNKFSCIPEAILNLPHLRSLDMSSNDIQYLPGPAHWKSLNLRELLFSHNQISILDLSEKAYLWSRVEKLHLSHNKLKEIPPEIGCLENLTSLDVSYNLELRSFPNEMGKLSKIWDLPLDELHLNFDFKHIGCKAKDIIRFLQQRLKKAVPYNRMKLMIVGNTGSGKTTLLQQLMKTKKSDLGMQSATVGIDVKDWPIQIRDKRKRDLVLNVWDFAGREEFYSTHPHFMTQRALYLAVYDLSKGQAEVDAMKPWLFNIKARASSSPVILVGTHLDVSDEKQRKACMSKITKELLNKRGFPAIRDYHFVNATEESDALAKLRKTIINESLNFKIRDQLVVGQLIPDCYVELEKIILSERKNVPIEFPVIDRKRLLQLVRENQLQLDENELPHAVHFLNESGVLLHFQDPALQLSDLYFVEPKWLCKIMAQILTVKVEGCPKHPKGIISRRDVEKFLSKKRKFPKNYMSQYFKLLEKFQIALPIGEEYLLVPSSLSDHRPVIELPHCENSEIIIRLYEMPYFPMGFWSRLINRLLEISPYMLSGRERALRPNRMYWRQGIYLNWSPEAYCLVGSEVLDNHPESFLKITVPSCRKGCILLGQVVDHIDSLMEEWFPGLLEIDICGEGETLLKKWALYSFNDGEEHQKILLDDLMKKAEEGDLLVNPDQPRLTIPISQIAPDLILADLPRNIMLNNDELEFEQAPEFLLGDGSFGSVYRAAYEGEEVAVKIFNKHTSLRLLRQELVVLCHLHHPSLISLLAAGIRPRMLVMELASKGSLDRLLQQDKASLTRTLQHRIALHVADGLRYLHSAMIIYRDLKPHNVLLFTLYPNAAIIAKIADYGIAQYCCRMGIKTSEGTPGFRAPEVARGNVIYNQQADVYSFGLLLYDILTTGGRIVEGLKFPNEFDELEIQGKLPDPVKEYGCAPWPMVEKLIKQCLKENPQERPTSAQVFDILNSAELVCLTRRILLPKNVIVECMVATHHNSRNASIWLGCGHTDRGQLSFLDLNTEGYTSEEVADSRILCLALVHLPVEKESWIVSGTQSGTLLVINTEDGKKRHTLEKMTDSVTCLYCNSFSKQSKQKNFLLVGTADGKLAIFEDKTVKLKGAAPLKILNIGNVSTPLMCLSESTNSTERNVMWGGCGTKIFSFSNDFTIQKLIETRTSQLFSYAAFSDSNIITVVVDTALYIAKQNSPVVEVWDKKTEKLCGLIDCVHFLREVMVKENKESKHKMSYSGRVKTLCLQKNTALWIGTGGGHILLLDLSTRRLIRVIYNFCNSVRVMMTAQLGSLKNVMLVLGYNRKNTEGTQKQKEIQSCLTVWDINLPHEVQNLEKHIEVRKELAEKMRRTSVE
T1 sequence (O96017 whole entry): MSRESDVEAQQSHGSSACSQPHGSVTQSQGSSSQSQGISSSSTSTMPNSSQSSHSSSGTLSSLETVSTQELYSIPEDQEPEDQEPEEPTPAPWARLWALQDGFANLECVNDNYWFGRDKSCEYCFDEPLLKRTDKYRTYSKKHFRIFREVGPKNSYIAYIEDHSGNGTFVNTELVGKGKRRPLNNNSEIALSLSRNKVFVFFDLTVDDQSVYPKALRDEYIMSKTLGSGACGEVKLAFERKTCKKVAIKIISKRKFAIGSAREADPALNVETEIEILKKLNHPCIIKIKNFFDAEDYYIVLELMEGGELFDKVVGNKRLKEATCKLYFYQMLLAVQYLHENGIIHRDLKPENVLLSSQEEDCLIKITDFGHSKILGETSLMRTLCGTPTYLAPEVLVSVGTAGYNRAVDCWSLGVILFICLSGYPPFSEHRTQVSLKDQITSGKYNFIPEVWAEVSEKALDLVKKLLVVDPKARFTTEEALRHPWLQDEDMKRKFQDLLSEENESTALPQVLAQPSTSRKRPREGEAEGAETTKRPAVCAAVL
Cytochrome P450 2C8, sequence (P10632 whole entry): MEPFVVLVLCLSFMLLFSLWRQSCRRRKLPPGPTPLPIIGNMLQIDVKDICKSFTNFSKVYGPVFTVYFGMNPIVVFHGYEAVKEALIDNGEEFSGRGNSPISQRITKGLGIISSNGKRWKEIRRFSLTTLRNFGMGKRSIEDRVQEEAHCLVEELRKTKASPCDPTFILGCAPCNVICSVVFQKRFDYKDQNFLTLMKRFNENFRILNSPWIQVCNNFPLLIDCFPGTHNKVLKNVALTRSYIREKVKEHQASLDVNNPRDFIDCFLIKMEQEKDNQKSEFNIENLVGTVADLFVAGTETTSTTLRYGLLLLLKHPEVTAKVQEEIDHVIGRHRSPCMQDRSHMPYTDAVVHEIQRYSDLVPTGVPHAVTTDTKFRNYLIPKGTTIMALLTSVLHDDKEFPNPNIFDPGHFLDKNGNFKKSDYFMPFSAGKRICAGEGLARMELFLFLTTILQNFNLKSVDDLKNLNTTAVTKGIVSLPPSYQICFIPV
Voltage-gated inwardly rectifying potassium channel KCNH2, sequence (Q12809 whole entry): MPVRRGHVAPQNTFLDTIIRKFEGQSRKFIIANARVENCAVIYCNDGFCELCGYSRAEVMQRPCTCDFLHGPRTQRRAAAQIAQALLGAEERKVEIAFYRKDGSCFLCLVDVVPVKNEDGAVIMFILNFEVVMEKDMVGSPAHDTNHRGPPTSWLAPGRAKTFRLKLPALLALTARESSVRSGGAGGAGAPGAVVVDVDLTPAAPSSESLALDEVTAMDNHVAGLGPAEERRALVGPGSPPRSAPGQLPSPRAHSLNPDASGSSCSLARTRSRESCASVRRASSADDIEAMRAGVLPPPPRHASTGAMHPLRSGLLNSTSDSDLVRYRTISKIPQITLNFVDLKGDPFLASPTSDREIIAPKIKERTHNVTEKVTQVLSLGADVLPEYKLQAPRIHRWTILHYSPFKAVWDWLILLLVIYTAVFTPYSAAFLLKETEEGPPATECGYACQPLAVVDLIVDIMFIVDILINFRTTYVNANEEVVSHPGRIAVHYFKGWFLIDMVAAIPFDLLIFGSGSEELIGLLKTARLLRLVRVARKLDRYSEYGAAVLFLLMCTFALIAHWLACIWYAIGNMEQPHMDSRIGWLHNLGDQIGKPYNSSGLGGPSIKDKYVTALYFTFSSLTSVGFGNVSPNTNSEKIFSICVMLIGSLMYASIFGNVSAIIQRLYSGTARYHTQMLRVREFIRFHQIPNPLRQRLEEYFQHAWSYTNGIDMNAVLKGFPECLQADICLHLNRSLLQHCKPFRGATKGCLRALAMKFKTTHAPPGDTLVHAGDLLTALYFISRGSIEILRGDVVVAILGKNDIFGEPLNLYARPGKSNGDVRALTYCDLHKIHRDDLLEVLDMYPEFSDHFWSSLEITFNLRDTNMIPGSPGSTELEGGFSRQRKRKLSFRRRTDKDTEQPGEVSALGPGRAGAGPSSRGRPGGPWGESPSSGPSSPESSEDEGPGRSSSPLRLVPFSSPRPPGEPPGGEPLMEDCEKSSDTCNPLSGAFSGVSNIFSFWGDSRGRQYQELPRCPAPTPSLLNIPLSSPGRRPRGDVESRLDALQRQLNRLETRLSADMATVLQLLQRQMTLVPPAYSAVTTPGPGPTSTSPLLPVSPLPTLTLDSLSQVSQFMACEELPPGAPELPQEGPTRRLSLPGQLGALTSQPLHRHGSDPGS
Leucine-rich repeat serine/threonine-protein kinase 2 (Homo sapiens, UniProt Q5S007, G2019S), sequence (Q5S007 whole entry G2019S): as the sequence (Q5S007 whole entry) above, with G2019S counted along it
Testis-specific serine/threonine-protein kinase 2 (Homo sapiens), sequence (Q96PF2 whole entry): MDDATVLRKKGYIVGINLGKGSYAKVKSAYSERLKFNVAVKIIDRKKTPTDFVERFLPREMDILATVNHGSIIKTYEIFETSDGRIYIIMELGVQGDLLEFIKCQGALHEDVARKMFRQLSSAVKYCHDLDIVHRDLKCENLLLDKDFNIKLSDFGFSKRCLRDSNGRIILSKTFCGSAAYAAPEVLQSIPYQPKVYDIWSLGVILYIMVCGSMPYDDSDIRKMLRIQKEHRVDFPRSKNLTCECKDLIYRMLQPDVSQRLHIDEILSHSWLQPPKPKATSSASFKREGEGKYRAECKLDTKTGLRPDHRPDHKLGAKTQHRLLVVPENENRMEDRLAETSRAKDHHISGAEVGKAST

Ratio IC50 [1]: 114
clearance [2]: 2.8 mL/min/kg
inhibition [3]: > 80%
inhibition [4]: > 80%
Ratio IC50 [5]: 493
Vd [6]: 0.53 L/kg
AUC [7]: 5.29 µM·h
IC50 [8]: 0.035 µM
MRT [9]: 0.98 h
IC50 [10]: > 5 µM
IC50 [11]: 0.342 µM
IC50 [13]: 0.003 µM
Vd [14]: 0.66 L/kg
inhibition [15]: > 80%
IC50 [16]: 0.602 µM
Ratio IC50 [17]: 76.3
Ratio IC50 [18]: 201
fraction unbound [19]: < 0.01
IC50 [20]: 0.545 µM
Ratio IC50 [21]: 11.7
inhibition [22]: 80%
inhibition [23]: > 80%
inhibition [24]: > 80%
IC50 [25]: 1.48 µM
MRT [26]: 4.3 h
IC50 [27]: > 30 µM
inhibition [28]: > 80%
IC50 [30]: 0.944 µM
AUC [31]: 18.2 µM·h
inhibition [32]: > 80%
IC50 [33]: 0.229 µM
inhibition [34]: 80%
SMILES: CCc1cccc(CC)c1N1CCn2cc(-c3nc(Nc4ccc(N5CCC(C(=O)N6CC7(CN(C)C7)C6)CC5)cc4OC)nc4[nH]ccc34)cc2C1=O
IC50 [12]: > 30 µM
Activity [29]: Active
